How the values were obtained:
[1] = system: Long-Evans rats; experiment: AAPA task after bilateral NMDA excitotoxic lesion of the hippocampus; assay type: in vivo, rat
Method: Neuroprotective action of 3α-substituted derivatives of pregnanolone was tested in the well-established model represented by excitotoxic bilateral lesion of the hippocampus with NMDA, an agonist of NMDA receptors. This model represents a widely-accepted paradigm of excitotoxicity induced experimental disruption of memory functions in laboratory rodents. The model also mimics into some extent the excessive action of glutamate on cells in the hippocampus, which contains abundance of NMDA receptors. The effect of lesions and possible neuroprotective action can be observed at various intervals after treatment both on the histological and behavioral level, provided that a suitable hippocampus-dependent memory task is available. In our studies, we have used a hippocampus-dependent spatial task AAPA (see above), which requires spatial and executive abilities and involves so-called “cognitive coordination” (Wesierska et al., 2005). Again, all manipulations with animals conformed to current legislation and Institutional recommendations on animal care and were approved by ethical-care committee.
In this phase of experiment, we have studied the effect of compound from Example 9 (and relation of this effect to dose) on NMDA excitotoxic hippocampal lesion after various intervals from lesioning. 150 adult male Long-Evans rats (250-350 g) were used in the study. Rats were housed in transparent plastic cages (25×25×40 cm) in air-conditioned animal room with 12/12 h dark/light rhythmicity. All rats had free access to food and water throughout the study.
During surgery, animals were deeply anesthetized by isoflurane inhalation anesthesia (3.5%, driven by air). Initial sedation was pursued in initiation chamber filled with diethyl ether vapor. During whole anesthesia, vital functions of animals were precisely monitored by the person pursuing surgery. After fixation in the stereotaxic apparatus (Kopf Instruments) the skull was exposed and small trephine openings were drilled with micro driller and subsequently, 1 ul of NMDA solution ([…] NMDA in saline buffered with calcium dihydrogenphosphate to pH=7.2) was microinjected into both dorsal hippocampi. The stereotaxic coordinates (AP=4; L=±2.5; DV=4) were measured from a rigorous atlas (Paxinos and Watson, 2005) and later verified from histological examination. Rats were then placed into soft post-surgery boxes. […] Doses of compound from Example 9 were: 0.01 mg/kg, 0.1 mg/kg and 10 mg/kg of b.w. In control groups and lesion-only groups, we applied only saline and NMDA, respectively. Solution of compound from Example 9 (0.01 mg/2 ml, 0.1 mg/2 ml or 10 mg/2 ml dissolved in cyclodextrin) was applied s.c. at a volume of 2 ml/kg.
Prior to behavioral observations, animals were left for 7 days to recover after surgery. After this recovery period, two days (each consisting of two sessions) of AAPA training were conducted. Each rat was initially placed onto rotating (1 rpm) circular arena containing a to-be-avoided sector (60°), fixed in the coordinate frame of the room (Stuchlik et al., 2008). Upon entrance into the prohibited sector, rat was punished by a mild electric footshock (˜0.3 mA] delivered from low-impedance subcutaneous wire to contact between rats paws and grounded floor (with highest voltage drop in rats feet). Rats wore a latex harness on their backs, holding an infrared light-emitting diode (LED), which was sampled by TV camera mounted above the arena and connected to a computer digitizing system (iTrack, Biosignal Group, USA). The shock sector is not directly perceptible for animals and its location can be determined solely by its relationships with distal room landmarks. […] The task is highly dependent upon hippocampus, with unilateral inactivation of this structure leading to avoidance deficit (Cimadevilla et al., 2001). This was the reason why we have selected this task for NMDA-induced impairment and detection of putative neuroprotective action of our compound (Example 9). […]

[2] = system: rats; experiment: AAPA task after MK-801 (animal model of schizophrenia); assay type: in vivo, rat; conditions: for locomotion activity in AAPA (total distance): vs control
Method: The effect of compound from example 9 application on changes in behavior and locomotor activity in animal model of schizophrenia was monitored. Schizophrenia-like behavior in rats was induced by dizocilpine (MK-801) administration. […] was administered in doses of 0.001 mg/kg, 0.01 mg/kg, 0.1 mg/kg and 10 mg/kg. Spatial orientation and cognitive function of rats were assessed in active allothetic place avoidance task (AAPA).
Schizophrenia-like behaviour in rats was induced by administration of dizocilpine (MK-801). Spatial navigation and cognitive functions of rats were assessed in active alothetic place avoidance task (AAPA). In addition, this task allows simultaneous assessment of potential differences in locomotory activity. The AAPA task requires rats moving on a continuously rotating (1 rpm) smooth metallic circular arena to avoid an unmarked place defined in the coordinates of the experimental room. The avoidance is reinforced by a mild electric foot-shock administered automatically upon entering the to-be avoided place.
The AAPA task is highly dependent on hippocampal function, since even a unilateral inactivation of thstructure hippocampus impairs this behaviour. Animals have to actively and repeatedly move away from the to-be-avoided place otherwise they are brought there by the arena rotation. Each AAPA session lasts 20 min and 4 sessions were conducted over 4 consecutive days.
Rats received 0.1 mg/kg MK-801 alone or co-administered with the compound from example 9 (dissolved in β-cyclodextrine) in doses of 0.001 mg/kg, 0.01 mg/kg, 0.1 mg/kg, and 10 mg/kg. Control animals received saline. […] It is for a common animal model of schizophrenia-like behaviour.
The results are shown in FIGS. 21-23, where means and standard errors of the mean (S.E.M.) are represented for individual sessions. Statistic analysis was for better clarity stated always for the last session, when an asymptotic level of performance in control animals was reached.

[3] = 10 mg/kg s.c., 30 min prior to and after lesion, or 120 min after lesion

Compound: CC(=O)[C@H]1CC[C@H]2[C@@H]3CC[C@@H]4C[C@H](OC(=O)[C@@H](N)CCC(=O)O)CC[C@]4(C)[C@H]3CC[C@]12C [Example 9, 20-Oxo-5β-pregnan-3α-yl L-glutamyl 1-ester]
- number of entrances in AAPA after NMDA lesion ([1]; 0.01 mg/kg s.c., 30 min after lesion): improved the subsequent performance in the AAPA task
- maximum time avoided in AAPA after NMDA lesion ([1]; 0.01 mg/kg s.c., 30 min after lesion, or 30 min prior to and after lesion): had beneficial effect in lesioned animals
- number of entrances in AAPA after NMDA lesion ([1]; 0.01 mg/kg s.c., 30 min prior to and after lesion): the alleviation was not significant
- number of entrances in AAPA after NMDA lesion ([1]; 0.01 mg/kg s.c., longer intervals from the lesion): exerted no effect after longer intervals from the lesion
- maximum time avoided in AAPA after NMDA lesion ([1]; 0.1 mg/kg s.c.): tended to alleviate the performance of rats compared to lesioned animals without treatment
- number of entrances in AAPA after NMDA lesion ([1]; 0.1 mg/kg s.c., 30 min after lesion): non-significantly improved the behavioral performance
- maximum time avoided in AAPA after NMDA lesion [1, 3]: caused a significant improvement of rat performance
- number of entrances in AAPA after NMDA lesion [1, 3]: significant protective effect against hippocampal lesion
- number of entrances in AAPA after NMDA lesion ([1]; 10 mg/kg s.c., other delays): No improvement was seen at other delays
- MK-801-induced deficit in number of errors in AAPA ([2]; Example 9 0.001, 0.01, 0.1 and 10 mg/kg + MK-801 0.1 mg/kg): reversed this deficits at all doses
- locomotion activity in AAPA (total distance) ([2]; Example 9 0.001, 0.01 and 0.1 mg/kg + MK-801 0.1 mg/kg): showed neither increase nor decrease of locomotion activity
- MK-801-induced deficit in maximum time of avoidance in AAPA ([2]; Example 9 0.001, 0.01 and 10 mg/kg + MK-801 0.1 mg/kg): reversed this deficit
- locomotion activity in AAPA (total distance) ([2]; Example 9 10 mg/kg + MK-801 0.1 mg/kg): increased locomotor activity compared to controls

— US8575376B2, “Steroide anionic compounds, method of their production, usage and pharmaceutical preparation involving them” (Ustav Organicke Chemie A Biochemie Akademie Ved Ceske …, priority 2009, dated 2013)
